Target: T1, HIV-1 Nucleocapsid Protein (NCp7) (Human immunodeficiency virus type 1 group M subtype B, UniProt P12493)
T1 construct: The NCp7 protein containing 2 Zn-fingers and 2 Zn ions
Assay: Fluorescence-based (TSQ) assay of zinc ejection from purified HIV-1 NCp7
Assay type: biochemical
Settings: 10 μM compound, 2.8 μM NCp7, 47 μM TSQ, pH 7.4, 26° C., 90 minutes
Excerpt: The compounds of the present invention cause the extrusion of zinc from the nucleocapsid protein (NCp7) of HIV-1. The NC protein is highly conserved among all retroviruses (South T., Blake P., et al., Biochemistry, 1990;;29:7786) and is essential for viral infectivity (Aldovini A. and Young R., J. Virology, 1990;64:1920 and Gorelick R., Nigida S., et al., J. Virology, 1990;64:3207). The zinc is normally held in NC proteins by 1 or 2 zinc fingers. In the case of HIV-1, 2 zinc fingers are present (Summers M., South T., et al., Biochemistry, 1990;29:329) and are involved specifically with the PSI site on viral RNA which controls the packaging of viral RNA. Interference of this packaging causes the formation of non-infectious virions (Dannull J., Surovoy A., et al., EMBO, 1994;13:1525). It has previously been shown that compounds that cause zinc extrusion have potent anti-HIV activity in multiple cell lines and against all retroviruses (Rice W., Schaeffer C., et al., Nature, 1993;361:473).
A fluorescence-based assay has been developed to monitor the ejection of zinc from purified HIV-1 NCp7. The fluorophore, N-(6-methoxy-8-quinolyl)-p-toluenesulfonamide (TSQ), has an increased fluorescent signal upon bonding zinc ion in solution. The NCp7 protein containing 2 Zn-fingers and 2 Zn ions is incubated with drug causing the extrusion of Zn ions. The released Zn is then sequestered by the TSQ and the increased fluorescence monitored relative to control. The assay was performed as follows: 10 μM compound was added to 2.8 μM NCp7 and 47 μM TSQ in 20 μL of pH 7.4 buffer at 26° C. for 90 minutes. Fluorescence (excitation 355 nm emission 400 nm) was monitored versus time. Controls were the NCp7 under assay conditions without drug, and apo NCp7 (no Zn) with drug. The % Zn extrusion was calculated based on the actual fluorescence measured divided by the fluorescence of all theoretical Zn extruded (5.6 μM)×100.
Table 1 below presents the results of testing several of the invention compounds in zinc extrusion assay described above. The compounds were evaluated for their ability to cause the extrusion of zinc from nucleocapsid protein NCp7 (expressed as % relative to control).

With O=C(O)Cn1sc2ccccc2c1=O [Example 13, 2-(3-Oxo-3h-benzo[d]isothiazol-2-yl) acetic acid] as the compound, how does the “% Zn Extrusion Relative to Control” value read?
Its value is 75%.

O=c1c2ccccc2sn1-c1ccccc1 [Example 15, 2-Phenyl-3-oxo-3h-benz[d]isothiazole] was tested. Which “% Zn Extrusion Relative to Control” value did it give?
Its value is 97%.

For Cc1ccnc(-n2sc3ccccc3c2=O)c1 [Example 18, 2-(4-Methylpyridin-2-yl)-3-oxo-3h-benzo[d]isothiazole], which “% Zn Extrusion Relative to Control” value is on record?
Its value is 100%.

For NS(=O)(=O)c1ccc(NC(=O)c2ccccc2S)cc1 [Preparation 29, 2-Mercapto-N-(4-sulfamoylphenyl)benzamide], which “% Zn Extrusion Relative to Control” value is on record?
Its value is 5.8%.

Target: T2, rabbit reticulocyte 15-LO (Oryctolagus cuniculus, UniProt P12530)
T2 construct: rabbit reticulocyte 15-LO; from tissue; host or cells: rabbit reticulocytes
T2 sequence (P12530 1-663): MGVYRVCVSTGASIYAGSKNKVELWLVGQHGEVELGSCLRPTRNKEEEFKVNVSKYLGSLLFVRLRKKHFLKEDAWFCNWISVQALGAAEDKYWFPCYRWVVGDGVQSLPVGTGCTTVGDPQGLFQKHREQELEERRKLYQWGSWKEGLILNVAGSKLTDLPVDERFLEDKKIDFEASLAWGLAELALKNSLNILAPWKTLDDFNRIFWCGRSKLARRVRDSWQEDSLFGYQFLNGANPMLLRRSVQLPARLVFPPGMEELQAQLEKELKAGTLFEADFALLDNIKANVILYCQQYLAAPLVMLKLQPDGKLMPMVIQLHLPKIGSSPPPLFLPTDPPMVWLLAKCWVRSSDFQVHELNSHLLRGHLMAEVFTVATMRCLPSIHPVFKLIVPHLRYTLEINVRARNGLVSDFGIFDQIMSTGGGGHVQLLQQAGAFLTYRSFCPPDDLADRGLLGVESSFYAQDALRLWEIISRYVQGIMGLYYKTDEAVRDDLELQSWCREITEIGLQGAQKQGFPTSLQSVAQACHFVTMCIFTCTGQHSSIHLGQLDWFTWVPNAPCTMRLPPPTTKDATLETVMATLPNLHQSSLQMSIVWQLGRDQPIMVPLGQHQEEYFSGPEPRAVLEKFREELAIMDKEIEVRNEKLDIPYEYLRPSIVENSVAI
Assay: HPLC Assay of 15-LO Inhibition
Assay type: biochemical
Settings: HPLC method; linoleic acid substrate, 4° C., 10 minutes
Description: The isothiazolones of Formula I are also effective for treating inflammation and atherosclerosis. A characteristic feature of atherosclerosis is the accumulation of cholesteryl ester engorged from foam cells. Foam cells are derived from circulating monocytes which invade artery walls in response to hypercholesterolemia, and mature into tissue macrophages. […] Specifically, representative compounds were evaluated by the methods described by Auerbach, et al., Analytical Biochemistry, 1992;201:375-380. Two in vitro assays were utilized, both utilizing rabbit reticulocyte 15-LO, and linoleic acid as substrate, to enzymatically produce a peroxide oxidation product known as 13(S)-HPODE. N-Benzoyl leucomethylene blue was utilized as a colorimetric reagent for detection and quantification of the peroxide formation. Also, HPLC was utilized to quantify the oxidation following incubation at 4° C. for 10 minutes.
Table 3 gives the concentration of compound required to inhibit 50% of the activity of 15-LO (IC50) when measured by the HPLC method of Auerbach, et al. Table 4 gives the percent inhibition of 15-LO activity when evaluated by the colorimetric method.

With CN(C)c1ncc2c(=O)n(Cc3ccccn3)sc2n1 [Example 23, 6-(Dimethylamino)-2-(2-pyridinylmethyl)isothiazolo [5,4-d]pyrimidin-3-(2H)-one] as the compound, how does the IC50 read?
The IC50 was 400 nM.

O=c1c2cnc(-c3ccccc3)nc2sn1Cc1ccccc1 [Example 24, 2-Benzyl-6-phenyl-isothiazolo[5,4-d]pyrimidin-3-one] was tested. Which IC50 did it give?
The IC50 was 300 nM.

O=c1c2cnc(-c3ccccc3)nc2sn1CCN1CCOCC1 [Example 27, 2-(2-Morpholin-4-yl-ethyl)-6-phenyl-isothiazolo[5,4-d) pyrimidin-3-one] was tested. Which IC50 did it give?
The IC50 was 270 nM.

With O=c1c2cnc(-c3ccccc3)nc2sn1CCc1ccccc1 [Example 28, 2-Phenethyl-6-phenyl-isothiazolo[5,4-d]pyrimidin-3-one] as the compound, how does the IC50 read?
Its IC50 is 760 nM.

How did the IC50 turn out when O=c1c2cnc(-c3ccccc3)nc2sn1Cc1ccccn1 [Example 29, 6-phenyl-2-pyridin-2-ylmethyl-isothiazolo[5,4-d] pyrimidin-3-one] was run?
The IC50 was 390 nM.

Which IC50 does the source give for O=c1c2cnc(-c3ccccc3)nc2sn1CCc1ccccn1 [Example 30, 6-phenyl-2-(2-pyridin-2-yl-ethyl)-isothiazolo[5,4-d] pyrimidin-3-one] here?
Its IC50 is 290 nM.

How did the IC50 turn out when O=c1c2cnc(N3CCCCC3)nc2sn1CCc1ccccn1 [Example 31, 6-Piperidin-1-yl-2-(2-pyridin-2-yl-ethyl)-isothiazolo [5,4-d]pyrimidin-3-one] was run?
The IC50 was 1300 nM.

With O=c1[nH]sc2nc(N3CCCCC3)ncc12 [Example 32, 6-Piperidin-1-yl-isothiazolo[5,4-d]pyrimidin-3-one] as the compound, how does the IC50 read?
Its IC50 is 3200 nM.

For O=c1c2cnc(N3CCOCC3)nc2sn1CCN1CCCCC1 [Example 33, 6-Morpholin-4-yl-2-(2-piperidin-1-yl-ethyl)-isothiazolo [5,4-d]pyrimidin-3-one], which IC50 is on record?
Its IC50 is 120 nM.

How did the IC50 turn out when CN(C)c1ncc2c(=O)n(CCc3ccccn3)sc2n1 [Example 34, 6-Dimethylamino-2-(2-pyridin-2-yl-ethyl)-isothiazolo [5,4-d]pyrimidin-3-one] was run?
The IC50 was 1700 nM.

With CN(C)c1ncc2c(=O)n(CCN3CCCCC3)sc2n1 [Example 35, 6-Dimethylamino-2-(2-piperidin-1-yl-ethyl)-isothiazolo [5,4-d]pyrimidin-3-one] as the compound, how does the IC50 read?
The IC50 was 160 nM.
